≈ marks a conversion by molar mass, not a printed value. Entries after “also recorded” stand apart in the source; their conditions may differ. Read-outs that look alike come from different tables or passages of the source. A value given as a limit tells only on which side of the number the result lay.

The subject of data set [1] is Mycobacterium tuberculosis pMSp12::GFP. Kind of data set: microbe, parasite or virus in culture. It is filed as cell-based.
The test system of data set [2] is 3D7 strain of Plasmodium falciparum. Description: In vitro antiplasmodial assay (pLDH). It is filed as cell-based.
The test system of data set [3] is Trypanosoma brucei brucei 427 trypomastigotes. Kind of data set: In vitro anti-trypanosomal assay. The data set is classed as cell-based. The settings on record: 24 h, 427 strain, read-out: IC50 T. b. brucei. The method, then:
Trypanosoma brucei brucei 427 trypomastigotes were cultured in iscove’s modified Dulbecco’s medium (IMDM; Lonza, Basel, Switzerland) supplemented with 10% fetal calf serum, HMI-9 supplement, hypoxanthine and penicillin/streptomycin at 37 °C in a 5% CO2 incubator. Serial dilutions of test compounds were incubated with the parasites in 96-well plates for 24 h and residual parasite viability in the wells determined as previously reported.

In a further data set the test system is HEK293 cells. Kind of data set: In vitro cytotoxicity assay. It is filed as cell-based. The settings on record: Homo sapiens, HEK293, read-out: IC50 HEK293.
A further data set relates to S. aureus (MRSA). Description: microbe, parasite or virus in culture. It is filed as cell-based. The settings on record: Staphylococcus aureus, read-out: MIC against S. aureus (MRSA).
A further data set has as its system A. baumanni. Kind of data set: Antibacterial broth microdilution, A. baumanni. It is filed as cell-based. The settings on record: read-out: MIC against A. baumanni. For orientation: Dilution methods test growth across graded concentrations, often in twofold steps.
For data set [4], the system named is ESKAPE (E. faecium, A. baumanni, K. pneumoniae, P. aeruginosa, S. aureus) pathogens. Description: Antibacterial broth microdilution, ESKAPE pathogens. The data set is classed as cell-based. The settings on record: colistin and vancomycin as standards.
Another data set deals with Mtb. Also noted: method as in PMID 29487031. The settings on record: first line treatment regimen; cited from earlier work.
The mark [5] stands for this setting: Mycobacterium tuberculosis, H37RV, 336 h.
The mark [6] stands for this setting: Plasmodium falciparum, 3D7, 48 h, read-out: IC50 Pf 3D7, chloroquine sensitive strain 3D7, 48 h, pLDH.
Where [7] appears, read: read-out: IC50 Pf 3D7, chloroquine sensitive strain 3D7, 48 h, pLDH.

A word on the IC50: it is the midpoint of a concentration-inhibition curve. With `Cn1c(=O)c2c(ncn2Cc2ccc3c(c2)c(=O)c(C(=O)NCCOCCO)cn3Cc2ccccc2)n(C)c1=O` [Compound 4e, 1-Benzyl-6-((1,3-dimethyl-2,6-dioxo-1,2,3,6-tetrahydro-7H-purin-7-yl)methyl)-N-(2-(2-hydroxyethoxy)ethyl)-4-oxo-1,4-dihydroquinolone-3-carboxamide], the MIC90 in data set [1] (setting [5]) was greater than 125 µM. The 50% inhibitory concentration (IC50) in data set [2] (setting [6]) is no less than 25 µM; in data set [2] (setting [7]) it was greater than 20 µM; in data set [3] (Trypanosoma brucei), 26.8 µM; with HEK293 cells, greater than 32 µg/mL.

In data set [1] (setting [5]), `COCCNC(=O)c1cn(Cc2ccccc2)c2ccc(Cn3cnc4c3c(=O)n(C)c(=O)n4C)cc2c1=O` [Compound 4f, 1-Benzyl-6-((1,3-dimethyl-2,6-dioxo-1,2,3,6-tetrahydro-7H-purin-7-yl)methyl)-N-(2-methoxyethyl)-4-oxo-1,4-dihydroquinolone-3-carboxamide] had an MIC90 greater than 125 µM. Further, the IC50 in [2] (setting [6]) was greater than 20 µM; in data set [3] (Trypanosoma brucei) it was greater than 20 µM; with HEK293 cells, greater than 32 µg/mL.

As to `Cn1c(=O)c2c(ncn2Cc2ccc3c(c2)c(=O)c(C(=O)NCCOCCO)cn3Cc2ccc(Br)cc2)n(C)c1=O` [Compound 4h, 1-(4-Bromobenzyl)-6-((1,3-dimethyl-2,6-dioxo-1,2,3,6-tetrahydro-7H-purin-7-yl)methyl)-N-(2-(2-hydroxyethoxy)ethyl)-4-oxo-1,4-dihydroquinolone-3-carboxamide], the MIC90 in [1] and in [1] (setting [5]) was greater than 125 µM in each case. In addition, the half-inhibitory concentration (IC50) in data set [2] (setting [6]) was 0.68 µM; in data set [3] (Trypanosoma brucei) it was greater than 20 µM; in the data set with HEK293 cells, greater than 32 µg/mL.

Compound `CCn1cc(C(=O)NCCOCCO)c(=O)c2cc(OCc3ccc(C(F)(F)F)cc3)ccc21` [Compound 8a, 1-Ethyl-N-(2-(2-hydroxyethoxy)ethyl)-4-oxo-6-((4-(trifluoromethyl)benzyl)oxy)-1,4-dihydroquinolone-3-carboxamide] registered an MIC90 in data set [1] (setting [5]) of 7.8 µM (≈ 3.73 µg/mL). Besides, the half-maximal inhibitory concentration (IC50) in [2] (setting [6]) was less than 10 µM; in data set [2] (setting [7]) it was 6.8 µM; in data set [3] (Trypanosoma brucei), 14.1 µM; with HEK293 cells, greater than 32 µg/mL.

Regarding `CCn1cc(C(=O)NCCNCCO)c(=O)c2cc(OCc3ccc(C(F)(F)F)cc3)c(Cl)cc21` [Compound 8c, 7-Chloro-1-ethyl-N-(2-((2-hydroxyethyl)amino)ethyl)-4-oxo-6-((4-(trifluoromethyl)benzyl)oxy)-1,4-dihydroquinolone-3-carboxamide], the IC50 in data set [3] is 1.5 µM; in data set [3] (Trypanosoma brucei), less than 2 µM; with HEK293 cells it was greater than 32 µg/mL. Also, the MIC in the data set with S. aureus (MRSA) is 16 µg/mL (≈ 31.3 µM); in the data set on A. baumanni, 32 µg/mL (≈ 62.5 µM). Further, the “activity against ESKAPE pathogens (in words)” value (shortened to “activity”) in data set [4] is on record as “moderate to poor activity; also recorded: moderate to weak, narrow spectrum activity”.

In [1] (setting [5]), `CCn1cc(C(=O)NCCOCCO)c(=O)c2cc(OCc3ccc(C(F)(F)F)cc3)c(Cl)cc21` [Compound 8d, 7-Chloro-1-ethyl-N-(2-(2-hydroxyethoxy)ethyl)-4-oxo-6-((4-(trifluoromethyl)benzyl)oxy)-1,4-dihydroquinolone-3-carboxamide] yielded an MIC90 greater than 125 µM. The figures for the IC50 (in [2] (setting [6]); in [3] (Trypanosoma brucei); in the data set with HEK293 cells) were greater than 20 µM, greater than 20 µM and greater than 32 µg/mL, respectively.

On to `O=C(NCCNCCO)c1cn(Cc2ccccc2)c2cc(Cl)c(OCc3ccc(C(F)(F)F)cc3)cc2c1=O` [Compound 8g, 1-Benzyl-7-chloro-N-(2-((2-hydroxyethyl)amino)ethyl)-4-oxo-6-((4-(trifluoromethyl)benzyl)oxy)-1,4-dihydroquinolone-3-carboxamide], for which the figures for the MIC90 in data set [1] and in data set [1] (setting [5]) were 0.9 µM (≈ 0.517 µg/mL) and 0.9 to 2 µM (≈ 0.517 to 1.15 µg/mL), respectively. Further, the IC50 in data set [2] (setting [6]) was 0.4 µM; in data set [2] (setting [7]) it was 0.46 µM; with HEK293 cells, greater than 32 µg/mL. Moreover, the MIC with S. aureus (MRSA) came out at 32 µg/mL (≈ 55.7 µM). Further, in data set [4], the “activity” value was “moderate to poor activity; also recorded: moderate to weak, narrow spectrum activity”.

Take `O=C(NCCOCCO)c1cn(Cc2ccccc2)c2cc(Cl)c(OCc3ccc(C(F)(F)F)cc3)cc2c1=O` [Compound 8h, 1-Benzyl-7-chloro-N-(2-(2-hydroxyethoxy)ethyl)-4-oxo-6-((4-(trifluoromethyl)benzyl)oxy)-1,4-dihydroquinolone-3-carboxamide]: the MIC90 in [1] (setting [5]) worked out at 16 µM (≈ 9.2 µg/mL). Moreover, the values for the IC50 (in data set [2] (setting [6]); in [3] (Trypanosoma brucei); in the data set on HEK293 cells) were greater than 20 µM, greater than 20 µM and greater than 32 µg/mL, respectively.

In turn, `CCOC(=O)c1cn(CC)c2ccc([N+](=O)[O-])cc2c1=O` [Compound 11, Ethyl 1-ethyl-6-nitro-4-oxo-1,4-dihydroquinolone-3-carboxylate] gave an MIC90 in data set [1] (setting [5]) of 31.3 µM (≈ 9.09 µg/mL). The figures for the concentration for half-maximal inhibition (IC50) (in data set [2] (setting [6]); in data set [3] (Trypanosoma brucei); with HEK293 cells) were greater than 20 µM, greater than 20 µM and greater than 32 µg/mL, respectively.

Regarding `CCOC(=O)c1cn(Cc2ccccc2)c2ccc(N)cc2c1=O` [Compound 12, Ethyl 6-amino-1-benzyl-4-oxo-1,4-dihydroquinolone-3-carboxylate], in data set [1] (setting [5]), the MIC90 was greater than 125 µM. The half-inhibitory concentration (IC50) in [2] (setting [6]) was 10 µM; in [3] (Trypanosoma brucei), greater than 20 µM; in the data set on HEK293 cells, greater than 32 µg/mL.

Consider `CCOC(=O)c1cn(Cc2ccccc2)c2ccc(/N=C/c3ccc([N+](=O)[O-])o3)cc2c1=O` [Compound 13, Ethyl-1-benzyl-6-(((5-nitrofuran-2-yl)methylene)amino)-4-oxo-1,4-dihydroquinolone-3-carboxylate], for which the figures for the MIC90 in data set [1] and in data set [1] (setting [5]) were 8.0 µM (≈ 3.56 µg/mL) and 8 µM (≈ 3.56 µg/mL), respectively. The 50% inhibitory concentration (IC50) in data set [2] (setting [6]) is less than 10 µM; in data set [2] (setting [7]), 6.5 µM; in data set [3] (Trypanosoma brucei), 5.2 µM; in the data set with HEK293 cells it was greater than 32 µg/mL. Also, in the data set on A. baumanni, the MIC stood at 16 µg/mL (≈ 35.9 µM). The “activity” value in [4] was “moderate to poor activity; also recorded: moderate to weak, narrow spectrum activity”.

Regarding `Nc1ccc2c(c1)c(=O)c(C(=O)NCCOCCO)cn2Cc1ccccc1` [Compound 14, 6-Amino-1-benzyl-N-(2-(2-hydroxyethoxy)ethyl)-4-oxo-1,4-dihydroquinolone-3-carboxamide], the MIC90 in data set [1] and in data set [1] (setting [5]) was greater than 125 µM in each case. The IC50 in data set [2] (setting [6]) is greater than 20 µM; in [3] (Trypanosoma brucei), greater than 20 µM; with HEK293 cells, greater than 32 µg/mL. Besides, the “IC50 Pf 3D7” value in [2] (chloroquine sensitive strain 3D7, 48 h, pLDH) is given as “complete loss of antiplasmodial activity”.

What is called melting point is the temperature of the solid-liquid transition. `CCn1cc(C(=O)OC)c(=O)c2cc(C(=O)/C=C/c3c(Cl)cccc3Cl)ccc21` [Compound 16, Methyl (E)-Methyl-6-(3-(2,6-dichlorophenyl)acryloyl)-1-ethyl-4-oxo-1,4-dihydroquinolone-3-carboxylate] registered a melting point of 247 to 249 °C. This compound also registered an MIC90 in data set [1] of 0.9 µM (≈ 0.387 µg/mL). Also, the MIC90 in data set [1] (setting [5]) lay in the range of 0.9 to 2 µM (≈ 0.387 to 0.861 µg/mL). For the same compound, the IC50 in data set [2] (setting [6]) is 11.7 µM. Further, in data set [3], the IC50 worked out at 1.5 µM. The IC50 in [3] (Trypanosoma brucei) was less than 2 µM. Further, in the data set on HEK293 cells, the IC50 is greater than 32 µg/mL.

On to `CC[C@@H](CO)NCCN[C@@H](CC)CO` [ethambutol], for which the MIC in the data set with Mtb is 15 µM (≈ 3.06 µg/mL).
